From US4179519A, “Method and composition for reducing serum lipid levels using p-chlorophenyl p-chlorophenoxyisobutyrate” (priority 1978, dated 1979)

Tests used:
[1] = acute oral toxicity in rats, observed during 14 days; format: in vivo, Wistar EOPS rats; conditions: in vivo, rat, 2000 mg/kg
Method: (§1) The acute toxicity of the p-chlorophenyl ester of clofibric acid was determined using two species of animals (Swiss EOPS mice and Wistar EOPS rats) by oral administration, the product being administered in a gum preparation. The animals were observed during 14 days.

[2] = system: serum and liver lipid levels; test: hypolipidemic activity in rats on regimen rich in lipids, second set of experiments (Table II); format: in vivo, male Wistar EOPS rats
Method: (§2) The hypolipidemic activity was determined in rats subjected to a regimen rich in lipids over the course of 2 sets of experiments.
2. Male Wistar EOPS rats weighing in the neighborhood of 140 g receive a regimen rich in lipids during 21 days. Beginning with the eleventh day, the animals receive either a gum preparation containing the product to be tested or a preparation of 6% gum arabic alone, for 6 days out of 7. After the last feeding, and a subsequent 24 hour fast, the animals are sacrificed. A group of animals submitted to a normal regimen is used as a control. The percentage reductions of lipid levels are calculated using the following equation: [formula]

[3] = acute oral toxicity in mice, observed during 14 days; format: in vivo, Swiss EOPS mice; conditions: mouse, in vivo, po, 2000 mg/kg
Method: as §1

Swiss EOPS mice = test: as above; format: in vivo; conditions: general statement
Method: as §1

Wistar EOPS rats = test: acute oral toxicity in rats, observed during 14 days; format: in vivo; conditions: rat, 2000 mg/kg
Method: as §1

[4] = system: serum and liver lipid levels; test: hypolipidemic activity in rats on regimen rich in lipids, first set of experiments (Table I); format: in vivo, conventional male Wistar rats
Method: as §2
1. Conventional male Wistar rats weighing 130-150 g were maintained on a regimen rich in lipids for 21 days. At the same time, beginning with the fifteenth day of the regimen, they received a daily dose of either a gum preparation containing the product to be tested or a preparation of 6% gum arabic alone. After a fast of 24 hours, the animals were sacrificed, 22 days after the start of the regimen.

[5] = subchronic toxicity study, blood levels after one month oral administration (Table III); format: in vivo, male Wistar EOPS rats; set-up: bilirubin: unit not given here
Method: A subchronic toxicity study of the p-chlorophenyl ester of clofibric acid was carried out using the following protocol. The product was administered six days a week during the course of a month, by oral administration in a gum preparation, to male Wistar EOPS rats having an average initial weight of 200 g. After the last feeding, the animals were fasted. A blood sample is taken from the abdominal aorta under anesthesia, then the animals are sacrificed. […] The notation NS or S signifies whether the change induced by the product to be tested was statistically nonsignificant or significant.

[6] = 125 mg/kg/day, regimen rich in lipids
[7] = 200 mg/kg/day, regimen rich in lipids
[8] = 75 mg/kg/day, regimen rich in lipids
[9] = second dose group, dose not given

## CC(C)(Oc1ccc(Cl)cc1)C(=O)O [clofibric acid, p-chlorophenoxyisobutyric acid, reference compound]
[1]
  mortality at 336 h: 40%
[2]; [6]
  Wt. of liver / Wt of rat: 6.99 ± 0.75
  liver cholesterol level: 127.0 mg/g of liver
  liver total lipids level: 382.7 mg/g of liver
  liver triglycerides % reduction: 65%
  liver triglycerides level: 20.33 mg/g of liver
  serum cholesterol % reduction: 54%
  serum cholesterol concentration: 2.31 g/L
  serum total lipids % reduction: 46%
  serum total lipids concentration: 4.97 ± 1.41 g/L
  serum triglycerides concentration: 0.23 ± 0.04 g/L

## CC(C)(Oc1ccc(Cl)cc1)C(=O)Oc1ccc(Cl)cc1 [p-chlorophenyl ester of clofibric acid, p-chlorophenyl 2-(p-chlorophenoxy)-2-methylpropionate]
[3]
  mortality at 336 h: 10%
Swiss EOPS mice
  toxicity: very low toxicity
Wistar EOPS rats
  mortality: did not result in any mortality
[4]; 200 mg/kg/day, Table I
  significance of reductions in blood and liver levels: significant
[4]; [7]
  liver total lipids % reduction: 56%
  liver total lipids level: 60.82 ± 26.98 mg/g of liver
  serum cholesterol % reduction: 69%
  serum cholesterol concentration: 1.33 ± 0.33 g/L
  serum total lipids % reduction: 81%
  serum total lipids concentration: 3.87 ± 0.65 g/L
[4]; general statement, total serum lipid and serum cholesterol levels
  hypolipidemic activity compared with clofibric acid and nicotinic acid: significantly superior to that of both clofibric acid and nicotinic acid
[2]; [8]
  Wt. of liver / Wt of rat: 6.08 ± 0.31
  liver cholesterol level: 123.0 mg/g of liver
  liver total lipids level: 323.9 mg/g of liver
  liver triglycerides % reduction: 48%
  liver triglycerides level: 23.37 mg/g of liver
  serum cholesterol % reduction: 32%
  serum cholesterol concentration: 3.06 g/L
  serum total lipids % reduction: 34%
  serum total lipids concentration: 5.56 ± 2.83 g/L
  serum triglycerides concentration: 0.39 ± 0.06 g/L
[2]; [6]
  Wt. of liver / Wt of rat: 6.36 ± 0.31
  liver cholesterol level: 136.5 mg/g of liver
  liver total lipids level: 361.9 mg/g of liver
  liver triglycerides % reduction: 62%
  liver triglycerides level: 20.84 mg/g of liver
  serum cholesterol % reduction: 69%
  serum cholesterol concentration: 1.79 g/L
  serum total lipids % reduction: 74%
  serum total lipids concentration: 3.55 ± 0.77 g/L
  serum triglycerides concentration: 0.35 ± 0.06 g/L
[2]; [7]
  Wt. of liver / Wt of rat: 6.70 ± 0.50
  liver cholesterol level: 135.2 mg/g of liver
  liver total lipids level: 382.0 mg/g of liver
  liver triglycerides % reduction: 89%
  liver triglycerides level: 16.20 mg/g of liver
  serum cholesterol % reduction: 67%
  serum cholesterol concentration: 1.84 g/L
  serum total lipids % reduction: 69%
  serum total lipids concentration: 3.81 ± 0.97 g/L
  serum triglycerides concentration: 0.22 ± 0.06 g/L
[2]; at equal dosage levels, vs clofibric acid
  reduction of serum lipid and cholesterol levels compared with the acid: reduces serum lipid and cholesterol levels to a greater degree than the acid
[2]; at equivalent dosage levels, vs clofibric acid
  increase in liver weight compared with the acid: smaller than when the acid is used, and this difference is statistically significant
[2]; regimen rich in lipids
  weight of the animals' livers: increases
[5]; 100 mg/kg/day
  alkaline phosphatase: 25.0 ± 4.9 mU/ml
  bilirubin: 3.68 ± 0.73
  cholesterol: 0.47 ± 0.04 g/L
  glycemia: 1.58 ± 0.15 g/L
  total lipids: 2.92 ± 0.54 g/L
  triglycerides: 0.83 ± 0.27 g/L
  urea: 0.42 ± 0.07 g/L
[5]; 500 mg/kg/day
  alkaline phosphatase: 38.4 ± 9.9 mU/ml
  bilirubin: 5.04 ± 1.09
  cholesterol: 0.32 ± 0.06 g/L
  glycemia: 1.41 ± 0.26 g/L
  total lipids: 2.77 ± 0.42 g/L
  triglycerides: 1.09 ± 0.33 g/L
  urea: 0.40 ± 0.05 g/L
[5]; [9]
  alkaline phosphatase: 33.5± 7.8 mU/ml
  bilirubin: 4.82 ± 1.85
  cholesterol: 0.37 ± 0.07 g/L
  glycemia: 1.57 ± 0.15 g/L
  total lipids: 2.54 ± 0.35 g/L
  triglycerides: 0.74 ± 0.1 g/L
  urea: 0.34 ± 0.07 g/L
